Consider twelve compounds from ChEMBL document CHEMBL1201862, “PubChem BioAssay data set” (2004).

Test systems include MCF7; OVCAR-4; Malme-3M; SF-295; HT-29; MOLT-4; HL-60; A498; OVCAR-5; SNB-75; HCC 2998; NCI-H226; UACC-257; OVCAR-3; UACC-62; HOP-92; RXF 393; SK-MEL-5; SR; MDA-MB-435.
Test in all cases: inhibition of tumour cell growth, NCI panel, 48 h

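Dose response: 5 concentrations. Exposure: 48 h. Format: 96-well plates. Endpoint: linear interpolation; highest concentration if not reached. The concentration for 50% growth inhibition is given as GI50.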 Calls of active or inactive are those of the source. No stated cut-off is given here; in the data, active = GI50 up to about 1.1 µM and inactive = higher.

In the case of `O=P1(c2ccccc2)Nc2ccccc2SSc2ccccc2N1`, the GI50 in the test with MCF7 is 16.7 µM (inactive); in the test with OVCAR-4, 18.6 µM (inactive); in the test with Malme-3M, 18.4 µM (inactive); with SF-295 it was 14.9 µM (inactive); in the test with HT-29 it was 19.2 µM (inactive); in the test on MOLT-4 it was 18.7 µM (inactive). For the same compound, the GI50 in the test with HL-60 is 13.8 µM (inactive); in the test on A498, 20.4 µM (inactive); in the test with OVCAR-5, 21.2 µM (inactive); with SNB-75 it was 20.4 µM (inactive); in the test with HCC 2998 it was 20.7 µM (inactive); in the test on NCI-H226, 17 µM (inactive). Further, the GI50 with UACC-257 is 15.8 µM (inactive); in the test with OVCAR-3 it was 15.1 µM (inactive); in the test with UACC-62, 15.6 µM (inactive); with HOP-92, 15.4 µM (inactive); with RXF 393 it was 19.4 µM (inactive); in the test with SK-MEL-5 it was 16.9 µM (inactive).
`O=C(OCc1ccccc1)C(Cc1ccccc1)N(Cc1ccccc1)Cc1ccccc1` (stereo not given): the GI50 in the test on OVCAR-4 is 28.8 µM (inactive); with SR, 9.51 µM (inactive); with Malme-3M it was > 100 µM (inactive); in the test with SF-295, > 100 µM (inactive); in the test with HT-29 it was > 100 µM (inactive); in the test with MOLT-4, 18.5 µM (inactive). The GI50 was 36.7 µM (inactive) in the test with HL-60; > 100 µM (inactive) in the test with A498; > 100 µM (inactive) in the test on OVCAR-5; 16.5 µM (inactive) in the test on SNB-75; 35.7 µM (inactive) with HCC 2998; 9.42 µM (inactive) with UACC-257. For the same compound, the GI50 in the test on OVCAR-3 was 84.7 µM (inactive); in the test on UACC-62 it was 80 µM (inactive); with HOP-92 it was > 100 µM (inactive); in the test with RXF 393, 46.9 µM (inactive); in the test with SK-MEL-5, 5.94 µM (inactive).
As to `CN(C)CCNC(=O)c1cc(Cl)cc2ccc(-c3ccccc3)nc12`, the GI50 in the test with MCF7 is 1.82 µM (inactive); in the test with OVCAR-4 it was 3.92 µM (inactive); in the test with Malme-3M, 3.63 µM (inactive); in the test with SF-295, 3.86 µM (inactive); with HT-29 it was 2.22 µM (inactive); in the test with MOLT-4 it was 0.447 µM (active). Besides, the GI50 in the test on HL-60 was 2.05 µM (inactive); in the test on A498 it was 5.48 µM (inactive); in the test on OVCAR-5, 4.84 µM (inactive); in the test on SNB-75, 1.86 µM (inactive); in the test on HCC 2998, 3.54 µM (inactive); with NCI-H226, 2.49 µM (inactive). In addition, the GI50 in the test with UACC-257 is 2.92 µM (inactive); in the test on OVCAR-3 it was 3.74 µM (inactive); in the test on UACC-62, 2.45 µM (inactive); in the test with HOP-92 it was 2.82 µM (inactive); with RXF 393, 3.86 µM (inactive); with SK-MEL-5, 1.87 µM (inactive).
For `C=CCC(O[Si](C)(C)C(C)(C)C)c1cc(O[Si](C)(C)C(C)(C)C)ccc1OC` (stereo not given), the GI50 in the test with MCF7 was 51.1 µM (inactive); with OVCAR-4 it was > 67.3 µM (inactive); in the test on Malme-3M, > 100 µM (inactive); in the test with SF-295, > 71.8 µM (inactive); with HT-29, > 100 µM (inactive); in the test on MOLT-4 it was > 70.8 µM (inactive). Further, the GI50 in the test on HL-60 is > 100 µM (inactive); with A498 it was 46.9 µM (inactive); in the test with OVCAR-5 it was > 100 µM (inactive); with SNB-75, > 55.6 µM (inactive); in the test with HCC 2998 it was > 100 µM (inactive); in the test with NCI-H226, > 53.6 µM (inactive). Also, the GI50 with UACC-257 was > 79.4 µM (inactive); in the test with OVCAR-3 it was > 54.6 µM (inactive); with UACC-62 it was > 81.3 µM (inactive); with HOP-92, 35.4 µM (inactive); in the test on RXF 393, 58.9 µM (inactive); with SK-MEL-5, > 61.1 µM (inactive).
For the compound `CN1CCN(c2cc(-c3cc4ccccc4o3)oc(=O)c2C#N)CC1`, the GI50 was 93.5 µM (inactive) in the test with OVCAR-4; 36.8 µM (inactive) in the test on SR; > 100 µM (inactive) with Malme-3M; > 100 µM (inactive) in the test on SF-295; 78 µM (inactive) in the test on HT-29; 53 µM (inactive) in the test on MOLT-4. Besides, the GI50 in the test on HL-60 is 43.9 µM (inactive); in the test with A498 it was 63.8 µM (inactive); in the test with OVCAR-5, 50.1 µM (inactive); in the test on SNB-75, 80.4 µM (inactive); with HCC 2998, > 100 µM (inactive); with NCI-H226 it was 14.2 µM (inactive). The results for the GI50 with UACC-257, with RXF 393 and with SK-MEL-5 were > 100 µM (inactive), 72.6 µM (inactive) and 72.8 µM (inactive), respectively.
On to `CC(=O)OC1CC2(O)C(CCC3(C)C(c4ccc(=O)oc4)CCC32O)C2(C)C1=CC(O)C1OC12` (stereo not given), for which the GI50 in the test on MCF7 was 0.0552 µM (active); in the test on OVCAR-4, 0.0457 µM (active); in the test on Malme-3M, 0.0419 µM (active); in the test on SF-295, 0.0366 µM (active); with HT-29, 0.135 µM (active); with MOLT-4, 0.0281 µM (active). In addition, the GI50 is 0.0575 µM (active) in the test with HL-60; 0.113 µM (active) in the test on A498; 0.239 µM (active) with OVCAR-5; 0.0624 µM (active) with SNB-75; 0.114 µM (active) in the test with HCC 2998; 0.115 µM (active) in the test with NCI-H226. Moreover, the GI50 with UACC-257 is 0.0441 µM (active); with OVCAR-3, 0.0316 µM (active); in the test with UACC-62, 0.0457 µM (active); in the test with HOP-92 it was 0.0538 µM (active); in the test on RXF 393, 0.0331 µM (active); in the test on SK-MEL-5 it was 0.025 µM (active).
For `Oc1c(CNCCCN2CCCC2)cc(Cl)c2cccnc12`, the GI50 is 4.56 µM (inactive) with MCF7; 3.92 µM (inactive) in the test with OVCAR-4; 5.55 µM (inactive) in the test with Malme-3M; 2.19 µM (inactive) in the test on SF-295; 5.3 µM (inactive) in the test with HT-29; 2.77 µM (inactive) with MOLT-4. The GI50 was 0.364 µM (active) in the test with HL-60; 15 µM (inactive) in the test with A498; 2.52 µM (inactive) with OVCAR-5; 13 µM (inactive) in the test with SNB-75; 3.1 µM (inactive) with HCC 2998; 3.15 µM (inactive) with NCI-H226. Besides, the GI50 in the test on UACC-257 is 11.4 µM (inactive); in the test with OVCAR-3, 2.14 µM (inactive); in the test with UACC-62, 2.21 µM (inactive); in the test with HOP-92 it was 7 µM (inactive); with RXF 393, 11.5 µM (inactive); in the test on SK-MEL-5 it was 1.36 µM (inactive).
`NC1=C(C(=O)O)C(=O)C(Nc2c(O)cccc2C(=O)O)=CC1=O`: the GI50 was > 100 µM (inactive) in the test on OVCAR-4; > 100 µM (inactive) in the test with SR; 40.1 µM (inactive) in the test on Malme-3M; 43 µM (inactive) in the test on SF-295; > 100 µM (inactive) in the test on HT-29; > 100 µM (inactive) in the test with MOLT-4. The GI50 with HL-60 was > 100 µM (inactive); in the test with A498, > 100 µM (inactive); in the test with OVCAR-5, > 100 µM (inactive); in the test on SNB-75 it was > 100 µM (inactive); with HCC 2998, 31.6 µM (inactive); with NCI-H226, > 100 µM (inactive). Moreover, the GI50 in the test on UACC-257 is > 100 µM (inactive); in the test with OVCAR-3 it was > 100 µM (inactive); with UACC-62 it was 60 µM (inactive); in the test on HOP-92, > 100 µM (inactive); in the test on RXF 393, 31.6 µM (inactive); in the test on SK-MEL-5 it was 76 µM (inactive).
For `COC(=O)C1=C(C)N2CCOC2(C)C(C(=O)OC)C1c1ccc[nH]1` (stereo not given), the GI50 in the test on OVCAR-4, in the test on SR, in the test with SF-295, with HT-29, in the test on MOLT-4 and with HL-60 was > 100 µM (inactive) throughout. Moreover, the GI50 is 18.7 µM (inactive) with SNB-75; > 100 µM (inactive) in the test on HCC 2998; > 100 µM (inactive) with NCI-H226; > 100 µM (inactive) in the test on UACC-257; > 100 µM (inactive) in the test with OVCAR-3; > 100 µM (inactive) in the test on UACC-62. Besides, the GI50 with HOP-92, in the test with RXF 393 and with SK-MEL-5 was > 100 µM (inactive) throughout.
Turning to `Cc1cc(C)cc(Sc2c([N+](=O)[O-])ncn2C)c1`, the GI50 in the test on OVCAR-4 is 15.4 µM (inactive); in the test on SR it was 10.5 µM (inactive); in the test on Malme-3M it was 7.28 µM (inactive); in the test on SF-295, 21.9 µM (inactive); with HT-29, 16.2 µM (inactive); with MOLT-4, 5.79 µM (inactive). Further, the GI50 with A498 is 20.9 µM (inactive); in the test with OVCAR-5 it was 16.9 µM (inactive); with SNB-75, 21.3 µM (inactive); in the test on HCC 2998, 25 µM (inactive); in the test on NCI-H226, 6.03 µM (inactive); in the test on UACC-257 it was 14.2 µM (inactive). The GI50 in the test with OVCAR-3 is 13 µM (inactive); in the test with UACC-62, 15.5 µM (inactive); with HOP-92 it was 17.2 µM (inactive); in the test with SK-MEL-5 it was 13.8 µM (inactive).
`C1CC2=C(C1)[Se]C(=C1Sc3nsnc3S1)[Se]2`: the GI50 with MCF7 is > 100 µM (inactive); in the test on OVCAR-4 it was > 100 µM (inactive); with Malme-3M, 71.3 µM (inactive); in the test with SF-295 it was > 100 µM (inactive); in the test with HT-29 it was > 100 µM (inactive); in the test on MOLT-4, > 100 µM (inactive). The GI50 in the test on OVCAR-5 was > 100 µM (inactive); in the test on SNB-75, > 100 µM (inactive); in the test on HCC 2998, > 100 µM (inactive); in the test with NCI-H226, > 100 µM (inactive); in the test on UACC-257 it was > 100 µM (inactive); in the test with MDA-MB-435, 39 µM (inactive). In addition, the GI50 in the test on OVCAR-3, with UACC-62, in the test with HOP-92 and in the test on SK-MEL-5 was > 100 µM (inactive) each time.
On to `C=CCc1cccc(/C=N\N/C(N)=N/O)c1O`, for which the GI50 with MCF7 was 2.56 µM (inactive); in the test on OVCAR-4, 5.16 µM (inactive); in the test on Malme-3M, 9.2 µM (inactive); with SF-295 it was 2.31 µM (inactive); in the test on HT-29, 6.59 µM (inactive); with MOLT-4, 3.1 µM (inactive). The GI50 with HL-60 is 2.14 µM (inactive); in the test on A498, 7.76 µM (inactive); in the test with OVCAR-5, 5.02 µM (inactive); with SNB-75, 4.43 µM (inactive); in the test with HCC 2998, 3.21 µM (inactive); in the test with NCI-H226, 3.18 µM (inactive). The GI50 is 4.62 µM (inactive) with UACC-257; 2.26 µM (inactive) in the test on OVCAR-3; 2.64 µM (inactive) with UACC-62; 6.56 µM (inactive) in the test on HOP-92; 2.99 µM (inactive) with RXF 393; 3.76 µM (inactive) with SK-MEL-5.
